Experimental data published in patent US20100292185A1, “BETA-LACTAMASE INHIBITORS” (priority 2009, published 2010).
pIC50: −log10 of the molar value. Counter-ions that a name gives are not always drawn.

Experiments:
[1] = target: T1, VIM-2 metallo β-lactamase (Pseudomonas aeruginosa, UniProt Q9K2N0); experiment: β-lactamase enzyme inhibition assay (nitrocefin substrate), VIM-2; format: biochemical; conditions: nitrocefin 100 μM, 37° C., PBS pH 7.0; read-out: VIM-2 IC50
T1 construct: made in house
In short: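 VIM-2 was expressed untagged in E. coli BL21(DE3) and purified by two Q sepharose anion-exchange runs plus gel filtration to >90% purity. Compounds at 100–0.005 μM in PBS pH 7.0 were preincubated with enzyme for 10 min at 37° C, then nitrocefin was added at 100 μM final. Hydrolysis was followed kinetically at 486 nm for 10 min; IC50 is the concentration halving the initial rate relative to no-inhibitor wells.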

[2] = test system: K. pneumoniae expressing the Class A Extended Spectrum Beta-Lactamase (ESBL) CTX-M-15; experiment: In vitro antibacterial assay of β-lactamase inhibition (broth microdilution MIC), K. pneumoniae CTX-M-15; format: cell-based; conditions: in presence of Ceftazidime 8 μg/ml (Examples 1-56)
In short: (§1)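 MIC read by eye after 16–20 h at 37° C, with CLSI-standard inocula of strains grown 3–5 h in CAMHB containing 50 μg/mL ampicillin. Compounds tested in final 2-fold dilutions from 8 to 0.015 μg/mL together with a β-lactam antibiotic.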

[3] = target: T2, p99 AmpC β-lactamase (Enterobacter cloacae, UniProt P05364); experiment: β-lactamase enzyme inhibition assay (nitrocefin substrate), P99 AmpC; format: biochemical; conditions: nitrocefin 100 μM, 37° C., PBS pH 7.0; read-out: P99 AmpC IC50
T2 construct: expressed as native untagged proteins; made in house; host or cells: E. coli BL21(DE3)
T2 sequence (P05364 21-381): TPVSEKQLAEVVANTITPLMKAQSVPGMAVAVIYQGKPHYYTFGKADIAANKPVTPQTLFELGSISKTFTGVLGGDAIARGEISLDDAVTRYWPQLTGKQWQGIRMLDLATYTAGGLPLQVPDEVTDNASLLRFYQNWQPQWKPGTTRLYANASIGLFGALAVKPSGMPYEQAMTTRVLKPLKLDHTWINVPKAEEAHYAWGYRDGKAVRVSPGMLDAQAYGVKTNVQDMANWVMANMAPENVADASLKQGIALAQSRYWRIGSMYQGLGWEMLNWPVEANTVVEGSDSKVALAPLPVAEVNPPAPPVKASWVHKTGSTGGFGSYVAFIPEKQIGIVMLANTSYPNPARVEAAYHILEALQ
In short: (§2)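 Untagged recombinant β-lactamases from E. coli BL21(DE3), purified by ion exchange and gel filtration; 10 min, 37 °C preincubation with compound in PBS pH 7.0; nitrocefin 100 μM final; A486 kinetics, 10 min; IC50 from max rate vs control.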

[4] = target: T3, SHV-5 β-lactamase (Klebsiella pneumoniae, UniProt P0A3M1); experiment: β-lactamase enzyme inhibition assay (nitrocefin substrate), SHV-5; format: biochemical
T3 construct: expressed as native untagged proteins; made in house; host or cells: E. coli BL21(DE3)
T3 sequence (P0A3M1 22-286): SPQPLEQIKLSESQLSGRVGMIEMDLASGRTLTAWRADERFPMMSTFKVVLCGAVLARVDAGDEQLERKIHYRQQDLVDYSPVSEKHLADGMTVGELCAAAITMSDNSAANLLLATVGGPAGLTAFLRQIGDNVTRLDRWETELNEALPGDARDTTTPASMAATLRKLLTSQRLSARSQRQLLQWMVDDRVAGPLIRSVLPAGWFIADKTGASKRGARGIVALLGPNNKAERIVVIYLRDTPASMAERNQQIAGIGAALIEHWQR
In short: as §2

[5] = test system: P. aeruginosa expressing the Class B metallo β-lactamase VIM-2; experiment: In vitro antibacterial assay of β-lactamase inhibition (broth microdilution MIC), P. aeruginosa VIM-2; format: cell-based; conditions: in presence of Ceftazidime 16 μg/mL (Examples 1-56)
In short: as §1

[6] = test system: K. pneumoniae expressing the Class A carbapenemase KPC-2; experiment: microbe, parasite or virus in culture; format: cell-based; conditions: in presence of Ceftazidime 8 μg/ml (Examples 1-56)
In short: as §1

[7] = target: T4, OXA-23 β-lactamase (Acinetobacter baumannii, UniProt Q9L4P2); experiment: β-lactamase enzyme inhibition assay (nitrocefin substrate), OXA-23 crude extract; format: biochemical; conditions: nitrocefin 100 μM, 37° C., PBS pH 7.0; read-out: OXA-23 IC50
T4 construct: crude β-lactamase extracts were prepared from 20 ml overnight cultures; endogenous in cells; host or cells: Acinetobacter baumannii cells containing OXA-23 (crude freeze-thaw extract)
T4 sequence (Q9L4P2 18-273): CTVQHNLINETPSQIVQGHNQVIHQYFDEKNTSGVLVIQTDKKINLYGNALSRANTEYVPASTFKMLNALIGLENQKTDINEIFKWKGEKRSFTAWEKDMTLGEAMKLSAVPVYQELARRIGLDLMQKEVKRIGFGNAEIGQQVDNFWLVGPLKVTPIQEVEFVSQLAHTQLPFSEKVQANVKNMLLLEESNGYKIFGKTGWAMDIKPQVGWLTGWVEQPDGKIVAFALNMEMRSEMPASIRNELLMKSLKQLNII
In short: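 Crude enzyme came from freeze-thaw extracts of mid-log OXA-23-carrying A. baumannii grown in MH-II broth at 37° C. Inhibitors (100–0.005 μM in PBS pH 7.0) were preincubated with the enzyme for 10 min at 37° C, then 100 μM nitrocefin (final) was added and read kinetically at 486 nm for 10 min. IC50 was taken from initial hydrolysis rates relative to uninhibited controls.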

[8] = test system: E. coli expressing the Class A ESBL SHV-5; experiment: In vitro antibacterial assay of β-lactamase inhibition (broth microdilution MIC), E. coli SHV-5; format: cell-based; conditions: in presence of Ceftazidime 8 μg/ml (Examples 1-56)
In short: as §1

[9] = test system: E. cloacae expressing the Class C P99+; experiment: In vitro antibacterial assay of β-lactamase inhibition (broth microdilution MIC), E. cloacae P99+; format: cell-based; conditions: in presence of Ceftazidime 8 μg/ml (Examples 1-56)
In short: as §1

[10] = target: T5, KPC-2 β-lactamase (Klebsiella pneumoniae, UniProt Q9F663); experiment: β-lactamase enzyme inhibition assay (nitrocefin substrate), KPC-2; format: biochemical
T5 construct: expressed as native untagged proteins; made in house; host or cells: E. coli BL21(DE3)
T5 sequence (Q9F663 25-293 limits assumed): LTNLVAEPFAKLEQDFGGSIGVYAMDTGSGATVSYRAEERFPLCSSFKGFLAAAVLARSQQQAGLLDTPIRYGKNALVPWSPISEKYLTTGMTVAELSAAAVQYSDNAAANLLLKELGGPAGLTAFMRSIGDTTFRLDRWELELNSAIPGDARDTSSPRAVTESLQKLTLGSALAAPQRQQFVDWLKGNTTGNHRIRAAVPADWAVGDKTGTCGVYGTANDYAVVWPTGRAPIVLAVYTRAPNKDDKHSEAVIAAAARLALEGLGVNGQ
In short: as §2

[11] = target: T6, CTX-M15 β-lactamase (Escherichia coli, UniProt Q9EXV5); experiment: β-lactamase enzyme inhibition assay (nitrocefin substrate), CTXM-15; format: biochemical
T6 construct: expressed as native untagged proteins; made in house; host or cells: E. coli BL21(DE3)
T6 sequence (Q9EXV5 entry or part of it): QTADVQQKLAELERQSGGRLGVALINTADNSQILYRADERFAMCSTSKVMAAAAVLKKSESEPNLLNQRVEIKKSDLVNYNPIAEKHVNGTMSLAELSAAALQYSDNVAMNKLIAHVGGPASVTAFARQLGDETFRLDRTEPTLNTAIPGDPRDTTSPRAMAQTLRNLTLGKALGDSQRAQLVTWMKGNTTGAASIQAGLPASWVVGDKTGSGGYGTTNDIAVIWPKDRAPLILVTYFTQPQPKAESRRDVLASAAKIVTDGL
In short: as §2

SMILES | pIC50 [1] | MIC of example compound, K. pneumoniae CTX-M-15 [2] [µg/mL] | pIC50 [3] | pIC50 [4] | MIC of example compound, P. aeruginosa VIM-2 [5] [µg/mL] | MIC of example compound, K. pneumoniae KPC-2 [6] [µg/mL] | pIC50 [7] | MIC of example compound, E. coli SHV-5 [8] [µg/mL] | MIC of example compound, E. cloacae P99+ [9] [µg/mL] | pIC50 [10] | pIC50 [11]
Cl.Nc1nc(/C(=N/O)C(=O)N[C@@H](Cc2cccc(C(=O)O)c2O)B(O)O)cs1 [Example 49, 3-{2(R)-[2-(2-amino-thiazol-4-yl)-2(Z)-hydroxyimino-acetylamino]-2-borono-ethyl}-2-hydroxy-benzoic acid hydrochloride] | 6.23 | 2 | 8.70 | 8.40 | >8 | 0.12 | 7.77 | 2 | 2 | 7.47 | 7.96
Cl.NCCNCc1ccc(C(=O)N[C@@H](Cc2cccc(C(=O)O)c2O)B(O)O)cc1 [Example 15, (1R)-[4-(2-amino-ethylamino)-methyl]-benzoylamino-(3-carboxy-2-hydroxy)benzyl-methyl boronic acid hydrochloride] | 7.33 | 0.25 | 8.30 | < 6.00 | >8 | 0.01 | < 6.00 | 4 | 4 | 7.74 | 8.15
Cl.O=C(N[C@@H](Cc1cccc(C(=O)O)c1O)B(O)O)c1ccc(N2CCNCC2)nc1 [Example 9, (2R)-3-{2-[(2-(1-piperazinyl)-pyridine-5-carbonyl)-amino]-2-borono-ethyl}-2-hydroxy-benzoic acid hydrochloride] | 6.62 | 1 | 8.70 | < 6.00 | >8 | <0.01 | < 6.00 | 4 | 0.25 | 8.22 | 7.08
O=C(Cc1ccc(CN2CCNCC2)cc1)N[C@@H](Cc1cccc(C(=O)O)c1O)B(O)O [Example 37, (1R)-[2-(4-piperazin-1-ylmethyl-phenyl)-acetylamino]-(3-carboxy-2hydroxy)benzyl-methylboronic acid formate] | 6.11 | 2 | 8.70 | 8.70 | >8 | 0.03 | 7.08 | 2 | 2 | 8.05 | 8.15
CNCc1cccc(C(=O)N[C@@H](Cc2cccc(C(=O)O)c2O)B(O)O)c1 [Example 21, (1R)-(3-methylaminomethyl-benzoylamino)-(3-carboxy-2-hydroxy)benzyl-methylboronic acid formate] | 6.85 | 1 | 8.70 | 6.08 | >8 | 0.01 | 7.48 | 4 | 0.25 | 7.72 | 8.52
O=C(Cc1ccc(CN(CCO)CCO)cc1)N[C@@H](Cc1cccc(C(=O)O)c1O)B(O)O [Example 39, (1R)-[2-(4-{[bis-(2-hydroxy-ethyl)-amino]-methyl}-phenyl)-acetylamino]-(3-carboxy-2-hydroxy)benzyl-methylboronic acid formate] | 6.33 | 0.5 | 7.92 | 6.01 | >8 | 0.03 | 6.78 | 0.5 | 2 | 7.59 | 8.40
CCC(=O)C(=O)N[C@@H](Cc1cccc(C(=O)O)c1O)B(O)O [Example 56, 3-[2(R)-(2-oxo-butyrylamino)-2-borono-ethyl]-2-hydroxy-benzoic acid] | < 6.00 | 4 | 8.70 | 6.71 | >8 | 0.25 | 7.51 | >8 | 2 | 7.62 | 7.96
CC(=O)Nc1ccc(C(=O)N[C@@H](Cc2cccc(C(=O)O)c2O)B(O)O)cn1 [Example 10, (2R)-3-{2-[(2-(acetylamino)-pyridine-5-carbonyl)-amino]-2-borono-ethyl}-2-hydroxy-benzoic acid] | 6.17 | 0.25 | 8.52 | 6.50 | >8 | 0.01 | 6.24 | 1 | 0.5 | 8.40 | 8.52
CN(C)Cc1ccc(CC(=O)N[C@@H](Cc2cccc(C(=O)O)c2O)B(O)O)cc1 [Example 36, (1R)-[2-(4-dimethylaminomethyl-phenyl)-acetylamino]-(3-carboxy-2hydroxy)benzyl-methylboronic acid formate] | 6.23 | 0.12 | 8.70 | 8.70 | >8 | 0.06 | 6.72 | 0.5 | 0.25 | 8.30 | 8.40
NCc1cccc(CC(=O)N[C@@H](Cc2cccc(C(=O)O)c2O)B(O)O)c1 [Example 29, (1R)-[2-(3-aminomethyl-phenyl)-acetylamino]-(3-carboxy-2hydroxy)benzyl-methylboronic acid formate] | 6.05 | 0.12 | 8.22 | 8.30 | >8 | 0.03 | 6.23 | 0.5 | 0.12 | 7.80 | 8.05
CN(C)Cc1ccc(C(=O)N[C@@H](Cc2cccc(C(=O)O)c2O)B(O)O)cc1 [Example 4, 2(R)-3-[2-(4-(N,N-Dimethylaminomethyl)benzoylamino)-2-borono-ethyl]-2-hydroxy-benzoic acid formate salt] | < 6.00 | 0.25 | 8.52 | 9.22 | >8 | 0.06 | 7.00 | 1 | 2 | 8.40 | 8.52
CNCc1ccc(CC(=O)N[C@@H](Cc2cccc(C(=O)O)c2O)B(O)O)cc1 [Example 33, (1R)-[2-(4-methylaminomethyl-phenyl)-acetylamino]-(3-carboxy-2hydroxy)benzyl-methylboronic acid formate] | 6.47 | 0.12 | 8.15 | 8.30 | >8 | 0.06 | 6.42 | 0.5 | 0.25 | 7.92 | 8.10
